From patent US5443967A, “DNA encoding the cancer associated SCM recognition factor” (priority 1993, dated 1995)
Entries after “also recorded” stand apart in the source; their conditions may differ. *1 amine or outer side, *2 acyl side, *3 side chain or, on linkers, in order; H or OH if unused. Where a SMILES comes first, the peptide text is derived from it. Bridges are numbered along the chain shown (N, C = ends). Roman numbers before positions name the chains, in order. Where no end group is shown, it is not given here. [ ]: non-standard residue; d: D form. Actinocin(9to1) = Cc1c2oc3c(C)ccc(C(=O)[*:1])c3nc-2c(C(=O)[*:2])c(N)c1=O; NMeV = CN[C@H](C(=O)O)C(C)C; Sar = CNCC(=O)O

Legend:
[1] = test system: K 562 human myeloid cell line; assay: Natural lymphocyte cytotoxicity against K 562 cells (51Cr release); format: cell-based; settings: for Percent Cytotoxicity: Treated & Washed Lymphocytes: 35 femtomoles per lymphocyte, effector/target 40:1; for Percent Cytotoxicity: PBL, 35 femtomoles, 2.5 hours 37° C., 40:1
Protocol: Aliquots of these lymphocytes were also retained as controls and not incubated. In addition, potentially SCM-responding lymphocytes were obtained from donors having cancer, and treated in the same manner-some aliquots incubated with plasma containing SCM factor and others retained as controls and not incubated.
After incubation the cytotoxicity of the lymphocytes was tested in accordance with the method described in M. R. Potter and M. Moore, "Natural Cytotoxic Reactivity of Human Lymphocyte Subpopulations," Immunology 37, 187-194 (1979). In accordance with this published method cells of the K 562 human myeloid cell line labeled with ^51 Cr were used as target cells for the assay. The potentially SCM-responding lymphocytes were used as the effector cells. The ratio of target cells to effector cells was 1 to 20. […] The percent of cytotoxicity is determined as follows: [formula] where RS is the percent of ^51 Cr release in the sample, RC the percent of ^51 Cr release in the control and RT is the percent of ^51 Cr release in the presence of a detergent, Triton X-100. […] When the incubation was performed with potentially SCM-responding lymphocytes from cancer patients, the decrease in cytotoxicity was smaller, between 40 and 90%. […] The lower level of cytotoxicity present in cells from cancer patients was consistent with a decrease of such cytotoxicity caused by in vivo exposure to factors such as the cancer-associated SCM recognition factor.
The purified synthetic SCM factor molecule and peptides F1-F5, F7, and F8, as described above in Example 16, were investigated to determine their suppressive effect on the natural cytotoxicity of lymphocytes against cancer cells, using the human myeloid cell line K 562 as target as measured by the conventional ^51 Cr release method (Example 13).
In brief, the K 562 target cells grown in suspension in RPMI-FBS culture medium were washed and labeled for 3 hours at 37° C. with 100 μCi sodium [^51 Cr]chromate and then washed 4 times in RPMI growth medium. The effector lymphocytes used were isolated from heparinized peripheral blood of normal healthy donors using either appropriate density solutions to isolate the SCM-responding subpopulation of lymphocytes, as described above under "Isolation of SCM-responding Lymphocytes," or the conventional separation medium Histopaque 1077 for isolation of the total population of peripheral blood lymphocytes (PBL). The effector cell to target cell ratio used in these experiments was 40:1. Control samples contained target cells only and were used to determine background isotope release from the target cells. The test samples contained 0.2 mL aliquots of labeled target cells to which 0.2 mL of effector lymphocytes was added; the effector lymphocytes were either untreated or had been pretreated with either the entire synthetic SCM factor or any of the fragments designated F1 to F5, F7, or F8 for 2.5 hours at 37° C. The tests were carries out in triplicate. Cell suspensions were incubated for 18 hours at 37° C. in an atmosphere of 95% air and 5% CO2. Samples were then centrifuged for 10 minutes at 200 xg. From each test sample tube, a 0.2 mL aliquot of the supernatant was removed. Both the supernatant and the remaining cell pellet were counted in a Beckman gamma counter. The maximum possible isotope release was taken as the count obtained by adding the counts for the supernatant and cell pellets. The percentage of ^51 Cr release was determined for each of the triplicate samples; using the mean value of ^51 Cr release, the percentage of cytotoxicity was calculated according to the equation presented in Table 25.

[2] = test system: SCM-responding lymphocytes; settings: from prior applications Ser. No. 07/167,007 and 07/163,250; cited from earlier work
MCF7 breast cancer cells = assay: SCM factor in cultured cancer cells by noncompetitive ELISA; format: cell-based, human
Protocol: (§1) The SCM factors secreted from human cancer cells in culture whose amino acid sequences were presented in Example 24 also reacted with the anti-SCM antibody of Example 20. A variation on the ELISA assay of Example 21 was used. In this version of the ELISA assay, the assay was performed directly on the eluate from the RP-HPLC purification step that remained adsorbed to the Eppendorf™ collection tubes after loading of the bulk of the eluates onto the sequenator disk. No other SCM factor was added, and there was no additional sample added to the assay. This version of the SCM ELISA assay is noncompetitive; the larger is the quantity of SCM factor adsorbed to the Eppendorf™ tubes, the higher is the measured A405. The results, shown in Table 15, clearly indicate the presence of material able to react with anti-SCM antibody in these fractions.
(§2) Human cancer cells in culture were directly shown to contain SCM-factor molecules by antibody reactivity. Washed cells from monolayered cultures of several human cancer cells: MCF7 breast cancer cells; T1080 fibrosarcoma cells; A2780 ovarian cancer cells; and HCT80 colon cancer cells, were assayed directly by the noncompetitive ELISA assay procedure of Example 25.
As shown in Table 17 of Example 26, treatment of human cultured cancer cells with cycloheximide, an inhibitor of protein synthesis, decreases the amount of SCM factor produced by these cells. […] The amounts of SCM factor per 7×10^6 cells in the presence or absence of 10^-3 molar ascorbic acid after a 16-hour incubation were measured by the noncompetitive ELISA procedure of Example 25. The aliquot of cancer cells incubated in the presence of ascorbate ions produced 43.9% less SCM factor than untreated control cells.

T1080 fibrosarcoma cells = assay: as above; format: cell-based, human
Protocol: as §1, §2

[3] = test system: SCM-responding lymphocytes from healthy donors; assay: Modification/induction of SCM response of lymphocytes from healthy donors by preincubation with SCM factor; format: cell-based, human; settings: 10 μg/5×10^6 cells during incubation with synthetic SCM factor
Protocol: 10, 1986, and entitled "Automated Collection of Buoyant Density Specific Cells from Density Gradients." Aliquots of these cells were incubated in 3 ml of the following: (a) cell-free blood plasma from cancer patients; (b) plasma from cancer patients ultrafiltered for 12 hours through an Amicon™ UM2 filter with a molecular weight cutoff of 1000 daltons; (c) plasma from cancer patients ultrafiltered for 12 hours through an Amicon™ UM5 filter with a nominal molecular weight cutoff of 500 daltons; (d) general cancer-associated SCM factor as purified through the desalting or Sephadex G-10 column stage; (e) the factor as purified through the Sephadex G-50 column stage; (f) the factor as purified through the DEAE-cellulose column step; (g) the factor as finally purified through the RP-HPLC step; and (h) plasma from healthy donors ultrafiltered through an Amicon™ UM2 filter with a nominal molecular weight cutoff of 1000 daltons. […]
Before being contacted with either a mitogen or with the SCM factor for determination of the RRSCM the incubated cells were thoroughly washed. The presence or absence of modification was determined by the ratio of the polarization value of the lymphocyte suspension after a short contact period with substrates containing the SCM factor over the polarization value of the lymphocyte suspension after a short contact period with phytohaemagglutinin (PHA). […]

[4] = experiment with untreated control 46.5 ± 1.5
[5] = experiment with untreated control 72.7 ± 1.2
[6] = experiment with untreated control 80.4 ± 1.0
[7] = cycloheximide 50 μg/10^6 cells, 16 hrs
[8] = experiment with untreated control 71.2 ± 1.5

## MIPPEVKFNKPFVFLMIDQNTKVPLFMGK [Synthetic SCM Factor, MIPPEVKFNKPFVFLMIDQNTKVPLFMGK]
[1]
  dose resulting in a 50% decrease in cytotoxicity: 11.5 femtomoles per lymphocyte
  quantity required for a 50% decrease of the cytotoxic effect: 11.5 femtomoles
[1]; PBL of healthy donors
  Percent Cytotoxicity: Treated & Washed Lymphocytes: 3.0 ± 0.8%
[1]; [4]
  Percent Cytotoxicity: 0.1 ± 0.8%
[1]; [5]
  Percent Cytotoxicity: 3.2 ± 0.1%
[1]; [6]
  Percent Cytotoxicity: 3.1 ± 0.8%
[1]; SCM-R lymphocytes of healthy donors
  Percent Cytotoxicity: Treated & Washed Lymphocytes: 0.1 ± 0.9%

## F-W-G-A-E-G-Q-R (FWGAEGQR)
[2]
  SCM factor activity: with SCM-factor activity

## O=C1O[C@H]([C@@H](O)CO)C(O)=C1O [L-ascorbic acid]
MCF7 breast cancer cells; 1 × 10^-3 M, pH 7.1, 16 hrs at 37° C., 7×10^6 cells, control 1.7448
  Corrected ELISA A405 (SCM factor synthesis): 0.9788
MCF7 breast cancer cells; 10^-3 molar, 16-hour incubation
  less SCM factor produced than untreated control cells: 43.9%
MCF7 breast cancer cells; Homo sapiens, MCF7, 1 × 10^-3 M, pH 7.1, 16 hrs at 37° C., read-out: Corrected ELISA A405 as % of Control
  activity at 1000 µM: 56.1%

## MIPPEVKFNKPFVFLMDQNTK [F1, MIPPEVKFNKPFVFLMDQNTK]
[1]; [5]
  Percent Cytotoxicity: 78.5 ± 1.0%
[1]; [6]
  Percent Cytotoxicity: 81.0 ± 1.0%

## FNKPFVFLMIDQNTKVPLFMGK [F2, FNKPFVFLMIDQNTKVPLFMGK]
[1]; [4]
  Percent Cytotoxicity: 2.4 ± 0.2%
[1]; [5]
  Percent Cytotoxicity: 14.9 ± 1.5%
[1]; [6]
  Percent Cytotoxicity: 2.6 ± 1.7%

## MIPPEVKFNKPFVF [F5, M-I-P-P-E-V-K-F-N-K-P-F-V-F]
[1]; [5]
  Percent Cytotoxicity: 72.7 ± 1.3%
[1]; [6]
  Percent Cytotoxicity: 79.8 ± 0.9%

## C[C@@H]1C[C@@H]([C@H](O)CC2CC(=O)NC(=O)C2)C(=O)[C@@H](C)C1 [Cycloheximide, cycloheximide]
T1080 fibrosarcoma cells; [7]
  Corrected A405 As % of Control: 66.0 % of Control
T1080 fibrosarcoma cells; cycloheximide 50 μg/10^6 cells, 16 hrs, control 1.5060
  Corrected A405 (SCM factor synthesis): 0.9940
T1080 fibrosarcoma cells; cycloheximide treatment
  decrease of concentration of SCM factor associated with the cells: 34%
[3]
  induction of response to synthetic SCM factor in presence of protein synthesis inhibitor: no response to synthetic SCM factor was induced
MCF7 breast cancer cells; cycloheximide 20 μg/10^6 cells, 3 hrs
  Corrected A405 As % of Control: 91.2 % of Control
MCF7 breast cancer cells; cycloheximide 20 μg/10^6 cells, 3 hrs, control 2.0716
  Corrected A405 (SCM factor synthesis): 1.8893
MCF7 breast cancer cells; [7]
  Corrected A405 As % of Control: 74.7 % of Control
MCF7 breast cancer cells; cycloheximide 50 μg/10^6 cells, 16 hrs, control 0.9654
  Corrected A405 (SCM factor synthesis): 0.7217
MCF7 breast cancer cells; cycloheximide treatment
  decrease of concentration of SCM factor associated with the cells: 25.3%

## Cc1c2oc3c(C)ccc(C(=O)N[C@@H]4C(=O)N[C@H](C(C)C)C(=O)N5CCC[C@H]5C(=O)N(C)CC(=O)N(C)[C@@H](C(C)C)C(=O)O[C@@H]4C)c3nc-2c(C(=O)N[C@@H]2C(=O)N[C@H](C(C)C)C(=O)N3CCC[C@H]3C(=O)N(C)CC(=O)N(C)[C@@H](C(C)C)C(=O)O[C@@H]2C)c(N)c1=O [Actinomycin D, actinomycin D] (I: T[dV]P[Sar][NMeV] / II: T[dV]P[Sar][NMeV]; ester I:1-I:C, II:1-II:C; linker I:N-II:N via Actinocin(9to1))
[3]
  induction of response to synthetic SCM factor in presence of protein synthesis inhibitor: no response to synthetic SCM factor was induced

## FLMIDQNTKVPLFMGK [F7]
[1]; [8]
  Percent Cytotoxicity: 72.7 ± 1.0%

## VPLFMGK [F8]
[1]; experiment with untreated control 31.0 ± 2.0
  Percent Cytotoxicity: 33.0 ± 1.8%
[1]; [8]
  Percent Cytotoxicity: 71.7 ± 1.2%

## F-S-W-G-A-E-G-Q-R (FSWGAEGQR) [EAE peptide, experimental allergic encephalitogenic peptide]
[2]
  SCM factor activity: has no SCM factor activity; also recorded: completely devoid of SCM activity

## FNKPFVFLMIDQNTK [F3, F-N-K-P-F-V-F-L-M-I-D-Q-N-T-K]
[1]; [5]
  Percent Cytotoxicity: 74.5 ± 1.5%
[1]; [6]
  Percent Cytotoxicity: 80.5 ± 1.0%

## FLMIDQNTK [F4, F-L-M-I-D-Q-N-T-K]
[1]; [4]
  Percent Cytotoxicity: 48.6 ± 1.3%
[1]; [5]
  Percent Cytotoxicity: 76.2 ± 1.3%
[1]; [6]
  Percent Cytotoxicity: 81.0 ± 1.5%
